Calls of active or inactive are those of the source. How the calls were made is not given here.
Assay: reduced viability of parasite-Hsp90 expressing yeast – ATP luminescence, 48 h, cherry-picked samples, anti-malarial Hsp90 inhibitor project, dose response (AID 540268);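 on activity change, negative = inhibition: 0% = neutral control wells and -100% = positive control wells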
Conditions: yeast expressing the parasite Hsp90, ATP luminescence; for activity change, negative = inhibition: at 26 µM (top of the series)

| SMILES | AC50 | activity change, negative = inhibition |
| --- | --- | --- |
| O=c1c2ccccc2nc(-c2ccc(-c3ccccc3)cc2)n1-c1ccncc1 | 5.21 µM | – |
| COc1ccc(SN=C2C(C)=CC(=O)C=C2C)cc1 | 5.7 µM | – |
| Cc1ccc(N2C(=O)C3C4C=CC(CNC(=S)Nc5ccc(F)cc5)(O4)C3C2=O)cc1 (centres undefined) | – | 9.97% (inactive) |
| CC[C@@H]1Cc2cc(O)ccc2C2=C1c1ccc(O)cc1C[C@H]2CC | 7.76 µM | – |
| O=[S@]1Oc2ccccc2-c2ccccc21 | 1.67 µM | – |
| COc1ccc2c(c1)OC[C@H]1[C@H]2N2C(=O)c3cc(Br)ccc3NC(=O)[C@@]2(C)[C@H]1c1ccccc1 | 0.658 µM | – |
| CCn1c(CNc2ccc(Cl)cc2)nnc1SCc1ccc(Cl)cc1 | 4.37 µM | – |
| CSc1nnc2c3cc(F)ccc3n(C)c2n1 | 5.49 µM | – |
| CC(C)=CCc1cc([C@@H]2COc3c(ccc4c3C=CC(C)(C)O4)C2)c(O)cc1O | 0.265 µM | – |
| O=C(N/N=C\c1c(O)ccc2ccccc12)c1cncc(Br)c1 | 4.28 µM | – |
| OCCOCCn1c(C2CCCN2c2nc(-c3ccc(F)cc3)cs2)nc2cc(C(F)(F)F)ccc21 (centres undefined) | 7.92 µM | – |
| CCCCCCC(=O)N(O)C1CC(=O)N(c2ccc(F)cc2)C1=O (centres undefined) | 1.32 µM | – |
| CC(=NNC(=S)Nc1ccccc1Cl)c1ccccn1 | 3.91 µM | – |
| COc1ccc2c(c1)[C@H]1[C@H](CO2)[C@H](c2ccccc2)[C@]2(C)C(=O)Nc3ccc(C)cc3C(=O)N12 | 4.75 µM | – |
| O=C1C=CC(=O)N1c1cccc(-c2ccccc2)c1 | < 0.195 µM | – |
| CC1=C/C(=N\OS(=O)(=O)c2ccccc2)C(C)=CC1=O | 0.597 µM | – |
| Cn1c(/C=C/c2ccc([N+](=O)[O-])o2)nc2ccccc2c1=O | 6 µM | – |
| CCCCCCOc1ccc(N2C(=O)CC(N3CCC(C(=O)OCC)CC3)C2=O)cc1 (centres undefined) | 4.38 µM | – |
| CC1=CC(C)CC(C)OC(=O)CC(c2ccc(O)cc2)NC(=O)C(Cc2c(Br)[nH]c3ccccc23)N(C)C(=O)C(C)NC(=O)C(C)C1 (centres undefined) | 5.2 µM | – |
| CC(C)(C)SCCNC(=O)c1ccc(Cl)c([N+](=O)[O-])c1 | 4.37 µM | – |
| CCOc1cc(/C=C\[N+](=O)[O-])ccc1OCC(=O)Nc1ccccc1C | 2.61 µM | – |
| CC(=O)NC(c1ccc(Cl)cc1)c1ccc2cccnc2c1O (centres undefined) | 2.58 µM | – |
| CC(C)(C)c1ccc(NC(=O)COC(=O)c2ccc([N+](=O)[O-])s2)cc1 | 3.88 µM | – |
| Cc1ccc(OCc2n[nH]c(=S)n2C2CCCCC2)cc1 | 23.6 µM | – |
| O=C(N/N=C/c1ccccn1)c1cc(-c2ccc(Br)cc2)nc2ccccc12 | 5.33 µM | – |
| CCOc1cc(S(=O)(=O)NC2CCCCCC2)ccc1F | 5.56 µM | – |
| Cc1cc(-c2n[nH]c(=S)n2/N=C/C(Br)=C/c2ccccc2)n[nH]1 | 15 µM | – |

| SMILES | AC50 | activity change, negative = inhibition |
| --- | --- | --- |
| CC(C)C(=O)NC(c1cccc([N+](=O)[O-])c1)c1ccc2cccnc2c1O (centres undefined) | 2.73 µM | – |
| O=C(/C=C/c1ccccc1)c1cc(Br)ccc(=O)c1O | 1.51 µM | – |
| COc1cc(N(C)C)ccc1C=c1c2ccccc2n2c1cc(-c1ccccc1)[n+]2C | 7.55 µM | – |
| CCc1ccccc1NC(=O)c1cccc(Oc2ccc([N+](=O)[O-])cc2Cl)c1 | 4.12 µM | – |
| C/C(=N\Nc1ncnc2sc(C)c(C)c12)c1ccccn1 | 2.01 µM | – |
| N#CSCC(=O)c1cccc2ccccc12 | 1.92 µM | – |
| Cc1ccc(CNC(=O)c2ccc(Cn3nc(C)c(Cl)c3C)o2)cc1 | 7.23 µM | – |
| Oc1ccc(C2=NN(c3ccccc3)C(c3ccc(F)cc3)C2)cc1 (centres undefined) | 3.35 µM | – |
| O=c1oc(-c2ccccc2)cc(Cl)c1Cl | 3.77 µM | – |
| O=C(Nc1ccc(Cl)cc1Cl)c1cccc(N2C(=O)C=CC2=O)c1 | < 0.195 µM | – |
| O=C(N/N=C/c1cc(Cl)c(O)c(Cl)c1)c1cc2c(ccc3ccccc32)o1 | 3.54 µM | – |
| CCCCCCCCCC[N+](C)(C)CC/C=C1/c2ccccc2Sc2ccc(Cl)cc21 | 6.32 µM | – |
| CCCC(=O)NC1=C(Cl)C(=O)c2ccccc2C1=O | < 0.195 µM | – |
| O=C(/C=C/c1ccccn1)c1cc(Br)ccc1O | 1.01 µM | – |
| N/C(Cc1ccc(Cl)c(Cl)c1)=N\OC(=O)c1ccc(Br)o1 | – | 66.7% (inactive) |
| COc1ccc(OC)c(N2C(=O)NC(=O)/C(=C\c3ccc([N+](=O)[O-])s3)C2=O)c1 | 5.48 µM | – |
| O=[N+]([O-])c1cc(CN2CCN(c3cccc(C(F)(F)F)c3)CC2)c2cccnc2c1O | 4.42 µM | – |
| Cc1c(C(=O)N(Cc2ccccc2)Cc2cccs2)cnn1-c1ccc(Cl)cc1 | 5.05 µM | – |
| COc1ccc(NC(=O)CCC(=O)N/N=C/c2ccc([N+](=O)[O-])s2)cc1 | 3.33 µM | – |
| COc1ccc2sc(-c3ccccc3OC)c(-c3ccc(O)cc3)c2c1 | 8.46 µM | – |
| CC1CCN(c2nc(Cl)nc(Nc3ccc([N+](=O)[O-])cc3)n2)CC1 | 24 µM | – |
| CCOC(=O)/C(=C\c1cccnc1)C(=O)c1cc(C(C)=O)c(Nc2ccccc2)s1 | 3.93 µM | – |
| CCOC(=O)c1ccc(NC(=O)CC2C(=O)OCCN2CC)cc1 (centres undefined) | 4.28 µM | – |
| CCc1ccc(S(=O)(=O)N(C(=O)c2ccncc2)c2ccc(OC(=O)c3ccncc3)cc2)cc1 | 1.28 µM | – |
| O=C(OCC(=O)N1CCN(C(=O)c2ccco2)CC1)c1cc(-c2ccccc2)nc2ccccc12 | 3.6 µM | – |
| Oc1c(CN2CCN(c3ccccc3)CC2)cc(Br)c2cccnc12 | 7.92 µM | – |
| O=C(Oc1c(Cl)cc(Cl)c2cccnc12)c1cccs1 | 4.26 µM | – |

| SMILES | AC50 | activity change, negative = inhibition |
| --- | --- | --- |
| CCC(=O)OC1(C)C(=O)C2=COC(c3ccc(OC)cc3)=CC2=C(Br)C1=O (centres undefined) | 2.81 µM | – |
| O=C(C=Cc1cccc(O)c1)c1ccccc1O | 1.89 µM | – |
| N#Cc1c2ccc([N+](=O)[O-])cc2[n+]([O-])n1-c1ccccc1 | 2.1 µM | – |
| C=C(C)COc1ccc(-c2[nH]ncc2Oc2cccc(OC)c2)c(O)c1 | 8.1 µM | – |
| CCCCCCCCOC(=O)c1cc([N+](=O)[O-])c(Sc2ncnc3nc[nH]c23)c([N+](=O)[O-])c1 | 1.4 µM | – |
| O=C1OCC(CO)(CO)N=C1NNc1ccc(Cl)c(Cl)c1 | 2.2 µM | – |
| CN1CCN(C(c2ccc(Cl)cc2)c2cc(Cl)c3cccnc3c2O)CC1 (centres undefined) | 0.615 µM | – |
| Cc1ccc(O)c(N=Nc2nccs2)c1 | 1.2 µM | – |
| CN(C)c1ccc(-c2cc(O)c3ncccc3c2)cc1 | – | 26.4% (inactive) |
| CCOC(=O)C1=C(N)N2C(=O)C(C)SC2=C(C(=O)OC)C1c1ccccc1OC (centres undefined) | 0.706 µM | – |
| OCCCn1c(C2CCCN2c2nc(-c3ccc(F)cc3)cs2)nc2cc(Cl)c(Cl)cc21 (centres undefined) | 5.62 µM | – |
| O=C1OC(c2ccccc2)(c2ccc3cc(O)ccc3c2)c2ccccc21 (centres undefined) | 9.13 µM | – |
| O=C(CCCNC(=O)c1ccc(Cl)cc1)OCc1cccc(Br)c1 | 4.54 µM | – |
| CCCCC(=O)NC(c1ccc(Cl)cc1)c1ccc2cccnc2c1O (centres undefined) | 16.4 µM | – |
| Cc1cccc(/C=C/C(=O)c2ccc([N+](=O)[O-])o2)c1 | 1.56 µM | – |
| COc1ccc(C(=O)N/N=C/c2sc3ccccc3c2O)cc1 | 2.35 µM | – |
| COc1cc2cnc(-c3ccccc3)c(C(=O)c3ccc(F)cc3)c2cc1OC | 3.01 µM | – |
| O=[N+]([O-])c1cc(/C=N/O)ccc1Oc1ccccc1Cl | 2.86 µM | – |
| O=c1c2ccccc2sn1-c1ccccc1 | 9.19 µM | – |
| CC1=C(C)/C(=N\OS(=O)(=O)c2ccc(C)cc2)C=CC1=O | 1.22 µM | – |
| O=C(N/N=C/c1ccc(O)c2ncccc12)c1cccc(Br)c1 | 5.08 µM | – |
| O=C(/C=C/c1ccc([N+](=O)[O-])cc1)c1ccccc(=O)c1O | 1.04 µM | – |
| CC1=CC(=O)C(C(C)C)=C/C1=N/OS(=O)(=O)c1ccccc1 | 3.09 µM | – |
| COc1ccc2c(c1)OC[C@H]1[C@H]2N2C(=O)c3cc(OC)ccc3NC(=O)[C@@]2(C)[C@H]1c1ccccc1 | 24.7 µM | – |
| CC(C)N=c1scc(-c2cccs2)n1/N=C/c1ccc(O)c(O)c1O | 7.43 µM | – |
